According to PubChem BioAssay (NCI):
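These data come from cells grown in 96-well plates and exposed to compound for 48 hours at five concentrations. Here, GI50 denotes the concentration required for 50% inhibition of growth. TGI is the concentration that stops growth completely.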

Assays:
Test in all cases: NCI anticancer screen, dose series, 48 h
SF-539 CNS = test system: SF-539 CNS
OVCAR-5 ovarian = test system: OVCAR-5 ovarian
A549 NSCLC = test system: A549 NSCLC
MCF7 breast = test system: MCF7 breast
OVCAR-3 ovarian = test system: OVCAR-3 ovarian
OVCAR-4 ovarian = test system: OVCAR-4 ovarian
COLO 205 colon = test system: COLO 205 colon
NCI-H226 lung = test system: NCI-H226 lung
MOLT-4 leukemia = test system: MOLT-4 leukemia
KM12 colon = test system: KM12 colon
NCI/ADR-RES ovarian = test system: NCI/ADR-RES ovarian
SK-MEL-2 melanoma = test system: SK-MEL-2 melanoma
NCI-H522 lung = test system: NCI-H522 lung
UACC-257 melanoma = test system: UACC-257 melanoma
OVCAR-8 ovarian = test system: OVCAR-8 ovarian
CAKI-1 renal = test system: CAKI-1 renal
HOP-62 NSCLC = test system: HOP-62 NSCLC
SF-295 CNS = test system: SF-295 CNS
RPMI-8226 leukemia = test system: RPMI-8226 leukemia
M14 melanoma = test system: M14 melanoma
HCT-15 colon = test system: HCT-15 colon
U251 CNS = test system: U251 CNS
SF-268 CNS = test system: SF-268 CNS
HOP-92 NSCLC = test system: HOP-92 NSCLC
SK-MEL-5 melanoma = test system: SK-MEL-5 melanoma
HS 578T breast = test system: HS 578T breast
PC-3 prostate = test system: PC-3 prostate
NCI-H23 lung = test system: NCI-H23 lung
ACHN renal = test system: ACHN renal
BT-549 breast = test system: BT-549 breast
HCC-2998 colon = test system: HCC-2998 colon
SN12C renal = test system: SN12C renal
LOX IMVI melanoma = test system: LOX IMVI melanoma
NCI-H460 lung = test system: NCI-H460 lung
RXF 393 renal = test system: RXF 393 renal
HCT-116 colon = test system: HCT-116 colon
TK-10 renal = test system: TK-10 renal
DU-145 prostate = test system: DU-145 prostate
MALME-3M melanoma = test system: MALME-3M melanoma
UACC-62 melanoma = test system: UACC-62 melanoma
HT29 colon = test system: HT29 colon
SK-MEL-28 melanoma = test system: SK-MEL-28 melanoma
A498 renal = test system: A498 renal
MDA-MB-231 breast = test system: MDA-MB-231 breast
SK-OV-3 ovarian = test system: SK-OV-3 ovarian
SW-620 colon = test system: SW-620 colon
SNB-19 CNS = test system: SNB-19 CNS
IGROV1 ovarian = test system: IGROV1 ovarian
T-47D breast = test system: T-47D breast
SNB-75 CNS = test system: SNB-75 CNS
EKVX NSCLC = test system: EKVX NSCLC
SR leukemia = test system: SR leukemia
UO-31 renal = test system: UO-31 renal
MDA-MB-435 = test system: MDA-MB-435
786-0 renal = test system: 786-0 renal
CCRF-CEM leukemia = test system: CCRF-CEM leukemia
K-562 leukemia = test system: K-562 leukemia

O=C(CC1(O)C(=O)Nc2ccc(Br)cc21)c1ccc(C(=O)NCC2CCC3(CC2)OOC2(CCCCC2)OO3)cc1 (stereo not given)
GI50 (SF-539 CNS): 3.9 µM
TGI (SF-539 CNS): 17.6 µM
GI50 (OVCAR-5 ovarian): 13.8 µM
TGI (OVCAR-5 ovarian): 63.8 µM
GI50 (A549 NSCLC): 4.3 µM
TGI (A549 NSCLC): > 100 µM
GI50 (MCF7 breast): 3.05 µM
TGI (MCF7 breast): 26.5 µM
GI50 (OVCAR-3 ovarian): 2.13 µM
TGI (OVCAR-3 ovarian): 10.4 µM
GI50 (OVCAR-4 ovarian): 6.93 µM
TGI (OVCAR-4 ovarian): 72.3 µM
GI50 (COLO 205 colon): 3.74 µM
TGI (COLO 205 colon): 25.5 µM
GI50 (NCI-H226 lung): 4.7 µM
TGI (NCI-H226 lung): 30 µM
GI50 (MOLT-4 leukemia): 2.14 µM
TGI (MOLT-4 leukemia): 5.87 µM
GI50 (KM12 colon): 3.08 µM
TGI (KM12 colon): 31.2 µM
GI50 (NCI/ADR-RES ovarian): 15.1 µM
TGI (NCI/ADR-RES ovarian): 69.3 µM
GI50 (SK-MEL-2 melanoma): 2.92 µM
TGI (SK-MEL-2 melanoma): 9.23 µM
GI50 (NCI-H522 lung): 0.336 µM
TGI (NCI-H522 lung): 1.37 µM
GI50 (UACC-257 melanoma): 10.6 µM
TGI (UACC-257 melanoma): 29 µM
GI50 (OVCAR-8 ovarian): 4.57 µM
TGI (OVCAR-8 ovarian): > 100 µM
GI50 (CAKI-1 renal): 13.5 µM
TGI (CAKI-1 renal): 31.2 µM
GI50 (HOP-62 NSCLC): 11 µM
TGI (HOP-62 NSCLC): 40.7 µM
GI50 (SF-295 CNS): 7.1 µM
TGI (SF-295 CNS): 35 µM
GI50 (RPMI-8226 leukemia): 1.65 µM
TGI (RPMI-8226 leukemia): 4.47 µM
GI50 (M14 melanoma): 8.68 µM
TGI (M14 melanoma): 63.4 µM
GI50 (HCT-15 colon): 4.59 µM
TGI (HCT-15 colon): 34.3 µM
GI50 (U251 CNS): 2.24 µM
TGI (U251 CNS): 6.51 µM
GI50 (SF-268 CNS): 6.16 µM
TGI (SF-268 CNS): 36.5 µM
GI50 (HOP-92 NSCLC): 1.9 µM
TGI (HOP-92 NSCLC): 4.46 µM
GI50 (SK-MEL-5 melanoma): 2.4 µM
TGI (SK-MEL-5 melanoma): 7.09 µM
GI50 (HS 578T breast): 9.26 µM
TGI (HS 578T breast): > 100 µM
GI50 (PC-3 prostate): 2.64 µM
TGI (PC-3 prostate): 22.3 µM
GI50 (NCI-H23 lung): 6.43 µM
TGI (NCI-H23 lung): 32 µM
GI50 (ACHN renal): 2.02 µM
TGI (ACHN renal): 5.38 µM
GI50 (BT-549 breast): 7.28 µM
TGI (BT-549 breast): 32.7 µM
GI50 (HCC-2998 colon): 12.7 µM
TGI (HCC-2998 colon): 37.6 µM
GI50 (SN12C renal): 10.4 µM
TGI (SN12C renal): 34.9 µM
GI50 (LOX IMVI melanoma): 1.95 µM
TGI (LOX IMVI melanoma): 29 µM
GI50 (NCI-H460 lung): 3.37 µM
TGI (NCI-H460 lung): 30.2 µM
GI50 (RXF 393 renal): 5.46 µM
TGI (RXF 393 renal): 26.7 µM
GI50 (HCT-116 colon): 3.09 µM
TGI (HCT-116 colon): 30 µM
GI50 (TK-10 renal): 3.71 µM
TGI (TK-10 renal): 11.9 µM
GI50 (DU-145 prostate): 8.77 µM
TGI (DU-145 prostate): 39.6 µM
GI50 (MALME-3M melanoma): 2.47 µM
TGI (MALME-3M melanoma): 6.63 µM
GI50 (UACC-62 melanoma): 5.77 µM
TGI (UACC-62 melanoma): 29.2 µM
GI50 (HT29 colon): 4.96 µM
TGI (HT29 colon): 23 µM
GI50 (SK-MEL-28 melanoma): 11.1 µM
TGI (SK-MEL-28 melanoma): 46 µM
GI50 (A498 renal): 14.7 µM
TGI (A498 renal): 30.2 µM
GI50 (MDA-MB-231 breast): 5.96 µM
TGI (MDA-MB-231 breast): 37.1 µM
GI50 (SK-OV-3 ovarian): 10.4 µM
TGI (SK-OV-3 ovarian): 31.3 µM
GI50 (SW-620 colon): 2.76 µM
TGI (SW-620 colon): 13 µM
GI50 (SNB-19 CNS): 10.5 µM
TGI (SNB-19 CNS): 38.7 µM
GI50 (IGROV1 ovarian): 1.52 µM
TGI (IGROV1 ovarian): 11.6 µM
GI50 (T-47D breast): 2.69 µM
TGI (T-47D breast): 24.4 µM

Nc1nc(N)nc(-c2cnccn2)n1
TGI (SF-539 CNS): > 100 µM
TGI (SNB-75 CNS): > 100 µM
TGI (OVCAR-5 ovarian): > 100 µM
TGI (A549 NSCLC): > 100 µM
TGI (MCF7 breast): > 100 µM
TGI (EKVX NSCLC): > 100 µM
TGI (OVCAR-3 ovarian): > 100 µM
TGI (COLO 205 colon): > 100 µM
TGI (NCI-H226 lung): > 100 µM
TGI (MOLT-4 leukemia): > 100 µM
TGI (KM12 colon): > 100 µM
TGI (NCI/ADR-RES ovarian): > 100 µM
TGI (SR leukemia): > 100 µM
TGI (SK-MEL-2 melanoma): > 100 µM
TGI (NCI-H522 lung): > 100 µM
TGI (UACC-257 melanoma): > 100 µM
TGI (OVCAR-8 ovarian): > 100 µM
TGI (CAKI-1 renal): > 100 µM
TGI (HOP-62 NSCLC): > 100 µM
TGI (SF-295 CNS): > 100 µM
TGI (M14 melanoma): > 100 µM
TGI (HCT-15 colon): > 100 µM
TGI (U251 CNS): > 100 µM
TGI (SF-268 CNS): > 100 µM
TGI (HOP-92 NSCLC): > 100 µM
TGI (UO-31 renal): > 100 µM
TGI (MDA-MB-435): > 100 µM
TGI (PC-3 prostate): > 100 µM
TGI (NCI-H23 lung): > 100 µM
TGI (ACHN renal): > 100 µM
TGI (BT-549 breast): > 100 µM
TGI (HCC-2998 colon): > 100 µM
TGI (SN12C renal): > 100 µM
TGI (LOX IMVI melanoma): > 100 µM
TGI (NCI-H460 lung): > 100 µM
TGI (786-0 renal): > 100 µM
TGI (RXF 393 renal): > 100 µM
TGI (HCT-116 colon): > 100 µM
TGI (TK-10 renal): > 100 µM
TGI (DU-145 prostate): > 100 µM
TGI (MALME-3M melanoma): > 100 µM
TGI (UACC-62 melanoma): > 100 µM
TGI (CCRF-CEM leukemia): > 100 µM
TGI (SK-MEL-28 melanoma): > 100 µM
TGI (A498 renal): > 100 µM
TGI (MDA-MB-231 breast): > 100 µM
TGI (SK-OV-3 ovarian): > 100 µM
TGI (SW-620 colon): > 100 µM
TGI (SNB-19 CNS): > 100 µM
TGI (IGROV1 ovarian): > 100 µM
TGI (T-47D breast): > 100 µM
TGI (K-562 leukemia): > 100 µM
